In PMC12016531 (Applied and Environmental Microbiology, 2025):

Assays:
[1] = tested on: L. monocytogenes ATCC 19111; assay: MIC/MBC microdilution; assay type: cell-based, Listeria monocytogenes; settings: lowest concentration that killed 99.9%; TSB-YE; highest concentration 100 µM
[2] = tested on: L. monocytogenes CMCC 54002; assay: MIC/MBC microdilution; assay type: cell-based, Listeria monocytogenes; settings: lowest concentration that killed 99.9%; TSB-YE; highest concentration 100 µM
[3] = tested on: L. monocytogenes CICC 21632; assay: MIC/MBC microdilution; assay type: cell-based, Listeria monocytogenes; settings: lowest concentration that killed 99.9%; TSB-YE; highest concentration 100 µM
[4] = tested on: L. monocytogenes ATCC 51780; assay: MIC/MBC microdilution; assay type: cell-based, Listeria monocytogenes; settings: lowest concentration that killed 99.9%; TSB-YE; highest concentration 100 µM
[5] = tested on: L. monocytogenes ATCC BAA-751; assay: MIC/MBC microdilution; assay type: cell-based, Listeria monocytogenes; settings: lowest concentration that killed 99.9%; TSB-YE; highest concentration 100 µM
[6] = tested on: L. monocytogenes ATCC 19112; assay: MIC/MBC microdilution; assay type: cell-based, Listeria monocytogenes; settings: lowest concentration that killed 99.9%; TSB-YE; highest concentration 100 µM
[7] = tested on: L. monocytogenes ATCC 19113; assay: MIC/MBC microdilution; assay type: cell-based, Listeria monocytogenes; settings: lowest concentration that killed 99.9%; TSB-YE; highest concentration 100 µM
[8] = tested on: L. monocytogenes ATCC 19114; assay: MIC/MBC microdilution; assay type: cell-based, Listeria monocytogenes; settings: lowest concentration that killed 99.9%; TSB-YE; highest concentration 100 µM
L. monocytogenes LM605 = assay: MIC/MBC microdilution; assay type: cell-based, Listeria monocytogenes; settings: lowest concentration that killed 99.9%; TSB-YE; highest concentration 100 µM
[9] = tested on: L. monocytogenes ATCC 13932; assay: MIC/MBC microdilution; assay type: cell-based, Listeria monocytogenes; settings: lowest concentration that killed 99.9%; TSB-YE; highest concentration 100 µM
[10] = tested on: L. monocytogenes ATCC 19116; assay: MIC/MBC microdilution; assay type: cell-based, Listeria monocytogenes; settings: lowest concentration that killed 99.9%; TSB-YE; highest concentration 100 µM
[11] = tested on: L. monocytogenes ATCC 19118; assay: MIC/MBC microdilution; assay type: cell-based, Listeria monocytogenes; settings: lowest concentration that killed 99.9%; TSB-YE; highest concentration 100 µM
L. monocytogenes NCT0890 = assay: MIC/MBC microdilution; assay type: cell-based, Listeria monocytogenes; settings: lowest concentration that killed 99.9%; TSB-YE; highest concentration 100 µM
[12] = tested on: Acinetobacter baumannii ATCC 19606; assay: MIC/MBC microdilution; assay type: cell-based; settings: NB, highest concentration 100 µM
Protocol: (§1) The microdilution method ([25]) was used to measure the MIC of mycoidesin against indicator strains (Table S2). HPLC-purified mycoidesin was weighed and dissolved in a liquid culture medium to prepare various concentrations of mycoidesin (200.00, 100.00, 50.00, 25.00, 12.50, 6.25, 3.13, 1.56, 0.78, 0.39, 0.20, and 0.10 µM). A volume of 50 µL of different concentrations of mycoidesin solutions and 50 µL culture (1 × 10^6 CFU/mL) of the indicator strain were mixed in 96-well plates. The final concentrations of mycoidesin were 100.00, 50.00, 25.00, 12.50, 6.25, 3.13, 1.56, 0.78, 0.39, 0.20, 0.10, and 0.05 µM. […] The minimum bactericidal concentration (MBC) was the lowest concentration that killed 99.9% of the bacterial population. Nisin A was purified (Cayman Chemical, USA) as previously described ([26]) and was used to measure and compare the MIC values of L. monocytogenes strains and mycoidesin.

[13] = tested on: Escherichia coli ATCC 25922; assay: MIC/MBC microdilution; assay type: cell-based; settings: NB, highest concentration 100 µM
Protocol: as §1

[14] = tested on: Klebsiella pneumoniae CMCC 46117; assay: MIC/MBC microdilution; assay type: cell-based; settings: NB, highest concentration 100 µM
Protocol: as §1

[15] = tested on: Pseudomonas aeruginosa ATCC 27853; assay: MIC/MBC microdilution; assay type: cell-based; settings: NB, highest concentration 100 µM
Protocol: as §1

[16] = tested on: Salmonella Typhimurium ATCC 14028; assay: MIC/MBC microdilution; assay type: cell-based; settings: NB, highest concentration 100 µM
Protocol: as §1

[17] = tested on: Salmonella enterica serotype Paratyphi CMCC 50093; assay: MIC/MBC microdilution; assay type: cell-based; settings: NB, highest concentration 100 µM
Protocol: as §1

[18] = tested on: Serratia marcescens CMCC 41002; assay: MIC/MBC microdilution; assay type: cell-based; settings: NB, highest concentration 100 µM
Protocol: as §1

[19] = tested on: Shigella serogroups CMCC 51105; assay: MIC/MBC microdilution; assay type: cell-based; settings: NB, highest concentration 100 µM
Protocol: as §1

[20] = tested on: all tested gram-negative strains; assay: MIC/MBC microdilution, summary over gram-negative strains; assay type: cell-based; settings: up to 100 µM
Protocol: as §1

[21] = tested on: L. monocytogenes ATCC19111; assay: Intracellular accumulation of UDP-MurNAc-pentapeptide; assay type: cell-based, Listeria monocytogenes; settings: mycoidesin 1× and 2× MIC, vancomycin 10× MIC; 60 min; chloramphenicol 130 µg/mL pre-incubation 15 min; HPLC, MS
Protocol: (§2) Bacillus cereus CMCC63301 and L. monocytogenes ATCC19111 were grown to an OD600 of 0.3 and incubated with chloramphenicol (130 µg/mL) for 15 min. Mycoidesin (1× and 2× MIC) and vancomycin (10× MIC; positive control) were added and incubated for 60 min. The cells were collected, added to boiling water, treated for 15 min, centrifuged, and the supernatant was lyophilized. The intracellular accumulation of the peptidoglycan precursor UDP-MurNAc-pentapeptide was analyzed using HPLC (Hypersil ODS column) and identified via mass spectrometry ([27]).

[22] = tested on: Bacillus cereus CMCC63301; assay: as above; assay type: cell-based; settings: mycoidesin 1× and 2× MIC, vancomycin 10× MIC; 60 min; chloramphenicol 130 µg/mL pre-incubation 15 min; HPLC, MS
Protocol: as §2

B. cereus CMCC63301 = assay: Potassium release and SEM (cell membrane damage); assay type: cell-based, Bacillus cereus; settings: potassium release 1×, 2×, 4× MIC, 1 h; SEM 2× and 4× MIC, 3 h, 30°C
Protocol: The amount of potassium released was measured using a HI96750 Potassium Photometer.
Bacillus cereus CMCC63301 and L. monocytogenes ATCC19111 were grown in TSB medium to an OD600 of 0.3. […] The cells were harvested after centrifugation (6,000 × g, 10 min), washed with PBS buffer thrice, and fixed with 2.5% (vol/vol) glutaraldehyde for 12 h at 4°C. Subsequently, the cells were subjected to gradient dehydration for 10 min, treated with isoamyl acetate for 10 min, dried with a lyophilizer for 12 h, coated with gold-palladium, and observed using a Zeiss Gemini360 instrument ([18]).

B. subtilis CMCC63501 = assay: Stability: residual antimicrobial activity by agar diffusion; assay type: physicochemical, Bacillus subtilis; settings: up to 12 h
Protocol: After treatment for 2, 4, 6, 8, 10, and 12 h, the residual antimicrobial activity of the samples was measured using the agar diffusion method, with B. subtilis CMCC63501 as the indicator strain.

[23] = lowest concentration that killed 99.9%

C/C=C1\NC(=O)CNC(=O)[C@H](CCSC)NC(=O)[C@@H]2CS[C@@H](C)[C@@H](NC(=O)[C@@H]3CSC[C@@H](NC(=O)[C@H](CC(C)C)NC(=O)[C@H](CC(N)=O)NC(=O)[C@@H](N)Cc4ccc(O)cc4)C(=O)N[C@@H](C)C(=O)N[C@@H](C)C(=O)N[C@@H]([C@@H](C)CC)C(=O)N[C@@H](C)C(=O)N[C@@H](CC(=O)O)C(=O)N[C@@H](C)C(=O)N[C@@H](C)C(=O)NCC(=O)N[C@@H](CC(C)C)C(=O)N[C@@H](CCCCN)C(=O)NCC(=O)N[C@@H](CC(N)=O)C(=O)N[C@@H](Cc4ccc(O)cc4)C(=O)NCC(=O)N[C@@H](CCCCN)C(=O)N[C@@H](Cc4ccccc4)C(=O)N3)C(=O)N[C@@H](Cc3ccc(O)cc3)C(=O)N[C@H](CSC[C@@H](C(=O)NCC(=O)N[C@@H](CO)C(=O)O)NC(=O)[C@H](CO)NC(=O)[C@H](C(C)C)NC1=O)C(=O)N[C@@H](C)C(=O)N[C@@H](CCC(=O)O)C(=O)N2 [mycoidesin]
MBC [1]: NA (No activity was detected even at the highest concentration of mycoidesin (100 µM))
MBC [2]: NA (No activity was detected even at the highest concentration of mycoidesin (100 µM))
MBC [3]: NA (No activity was detected even at the highest concentration of mycoidesin (100 µM))
MBC [4]: NA (No activity was detected even at the highest concentration of mycoidesin (100 µM))
MBC [5]: NA (No activity was detected even at the highest concentration of mycoidesin (100 µM))
MBC [6]: NA (No activity was detected even at the highest concentration of mycoidesin (100 µM))
MBC [7]: NA (No activity was detected even at the highest concentration of mycoidesin (100 µM))
MBC [8]: NA (No activity was detected even at the highest concentration of mycoidesin (100 µM))
MBC (L. monocytogenes LM605): NA (No activity was detected even at the highest concentration of mycoidesin (100 µM))
MBC [9]: NA (No activity was detected even at the highest concentration of mycoidesin (100 µM))
MBC [10]: NA (No activity was detected even at the highest concentration of mycoidesin (100 µM))
MBC [11]: NA (No activity was detected even at the highest concentration of mycoidesin (100 µM))
MBC (L. monocytogenes NCT0890): NA (No activity was detected even at the highest concentration of mycoidesin (100 µM))
MBC [12, 23]: NA (No activity was detected even at the highest concentration of mycoidesin (100 µM))
MIC ([12]; microdilution, 30°C, 16 h): NA (No activity was detected even at the highest concentration of mycoidesin (100 µM))
MBC [13, 23]: NA (No activity was detected even at the highest concentration of mycoidesin (100 µM))
MIC ([13]; microdilution, 30°C, 16 h): NA (No activity was detected even at the highest concentration of mycoidesin (100 µM))
MBC [14, 23]: NA (No activity was detected even at the highest concentration of mycoidesin (100 µM))
MIC ([14]; microdilution, 30°C, 16 h): NA (No activity was detected even at the highest concentration of mycoidesin (100 µM))
MBC [15, 23]: NA (No activity was detected even at the highest concentration of mycoidesin (100 µM))
MIC ([15]; microdilution, 30°C, 16 h): NA (No activity was detected even at the highest concentration of mycoidesin (100 µM))
MBC [16, 23]: NA (No activity was detected even at the highest concentration of mycoidesin (100 µM))
MIC ([16]; microdilution, 30°C, 16 h): NA (No activity was detected even at the highest concentration of mycoidesin (100 µM))
MBC [17, 23]: NA (No activity was detected even at the highest concentration of mycoidesin (100 µM))
MIC ([17]; microdilution, 30°C, 16 h): NA (No activity was detected even at the highest concentration of mycoidesin (100 µM))
MBC [18, 23]: NA (No activity was detected even at the highest concentration of mycoidesin (100 µM))
MIC ([18]; microdilution, 30°C, 16 h): NA (No activity was detected even at the highest concentration of mycoidesin (100 µM))
MBC [19, 23]: NA (No activity was detected even at the highest concentration of mycoidesin (100 µM))
MIC ([19]; microdilution, 30°C, 16 h): NA (No activity was detected even at the highest concentration of mycoidesin (100 µM))
antimicrobial activity [20]: no antimicrobial activity
Intracellular accumulation of UDP-MurNAc-pentapeptide [21]: observed
Intracellular accumulation of UDP-MurNAc-pentapeptide [22]: observed
cell membrane damage (B. cereus CMCC63301): caused damage to the cell membrane
residual antimicrobial activity (B. subtilis CMCC63501; pH 7.0, 37°C, mycoidesin 6.25 µM, nisin A 12.5 µM (4× MIC)): remained unchanged
residual antimicrobial activity (B. subtilis CMCC63501; pH 7.0, 60°C, mycoidesin 6.25 µM (4× MIC)): decreased with increasing incubation time
residual antimicrobial activity (B. subtilis CMCC63501; pH 8.0, 37°C, mycoidesin 6.25 µM, nisin A 12.5 µM (4× MIC)): decreased
residual antimicrobial activity (B. subtilis CMCC63501; pH 8.0, 60°C, mycoidesin 6.25 µM (4× MIC)): decreased with increasing incubation time
